Reference: PubChem BioAssay (NCI)
“And” between values parts separate entries of the source, which are not always exact repeats. Equal entries are not always repeated.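 Growth conditions: 96-well plates. Treatment: test compound, 48 hours, 5 concentrations. Analysis: linear interpolation between bracketing concentrations; unreached endpoints set to highest concentration. GI50 is the concentration that inhibits growth by half. At the TGI there is no net growth.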

Experiments:
Assay in all cases: NCI tumour cell line growth inhibition, 48 h
MDA-MB-231 breast = system: MDA-MB-231 breast
RPMI-8226 leukemia = system: RPMI-8226 leukemia
UO-31 renal = system: UO-31 renal
NCI/ADR-RES ovarian = system: NCI/ADR-RES ovarian
PC-3 prostate = system: PC-3 prostate
HOP-62 NSCLC = system: HOP-62 NSCLC
SK-OV-3 ovarian = system: SK-OV-3 ovarian
U251 CNS = system: U251 CNS
HCT-116 colon = system: HCT-116 colon
M14 melanoma = system: M14 melanoma

SMILES	GI50 (MDA-MB-231 breast)	TGI (MDA-MB-231 breast)	GI50 (RPMI-8226 leukemia)	TGI (RPMI-8226 leukemia)	GI50 (UO-31 renal)	TGI (UO-31 renal)	GI50 (NCI/ADR-RES ovarian)	TGI (NCI/ADR-RES ovarian)	GI50 (PC-3 prostate)	TGI (PC-3 prostate)	GI50 (HOP-62 NSCLC)	TGI (HOP-62 NSCLC)	GI50 (SK-OV-3 ovarian)	TGI (SK-OV-3 ovarian)	GI50 (U251 CNS)	TGI (U251 CNS)	GI50 (HCT-116 colon)	TGI (HCT-116 colon)	GI50 (M14 melanoma)	TGI (M14 melanoma)
OCCNCCCOc1ccc2ncnc(Nc3ccc(Oc4cccc(C(F)(F)F)c4)c(Cl)c3)c2c1	1.72 µM	3.2 µM	1.51 µM	4.1 µM	1.29 µM	2.57 µM	2.65 µM	9.3 µM	1.66 µM	3.21 µM	–	–	–	–	–	–	–	–	–	–
C[n+]1c(-c2ccc(/C=N/NC(=O)c3ccc(C(=O)N/N=C/c4ccc(-c5cn6ccccc6[n+]5C)cc4)cc3)cc2)cn2ccccc21	119 µM	242 µM	121 µM	306 µM	227 µM	> 73.3 µM and 955 µM	553 µM	> 1000 µM	169 µM	306 µM	277 µM	425 µM	281 µM	494 µM	197 µM	347 µM	> 1000 µM	> 1000 µM	623 µM	> 1000 µM
Cc1cc(C(=O)O)c(C)n1-c1cccc(C(=O)O)c1	> 100 µM	> 100 µM	> 100 µM	> 100 µM	> 100 µM	> 100 µM	> 100 µM	> 100 µM	> 100 µM	> 100 µM	> 100 µM	> 100 µM	> 100 µM	> 100 µM	> 100 µM	> 100 µM	> 100 µM	> 100 µM	> 100 µM	> 100 µM
O=C(O)CCc1c2ccc(=O)c(O)c-2oc2c(O)c(O)ccc12	–	62.9 µM	–	75.3 µM	–	> 100 µM	–	> 100 µM	–	> 100 µM	–	> 100 µM	–	> 100 µM	–	> 100 µM	–	59.5 µM	–	> 100 µM
Cn1c2ccccc2c2c3[nH][nH]c(=O)c3c3c4ccccc4[nH]c3c21	1.39 µM	46.1 µM	2.96 µM	9.2 µM	2.68 µM	24.3 µM	4.02 µM	37.5 µM	2.03 µM	11.3 µM	3.11 µM	10.4 µM	3.46 µM	64.8 µM	2.09 µM	21.1 µM	1.32 µM	92.5 µM	3.05 µM	10 µM
C/C(=N\N=C(\[Se])N(C)C)c1ccccn1	–	30.7 µM	–	53.2 µM	–	13.9 µM	–	1.67 µM	–	13.9 µM	–	1.33 µM	–	10.2 µM	–	8.65 µM	–	14.2 µM	–	3.24 µM
COc1cc(N2CCN(C(C)C)CC2)ccc1Nc1nc(Nc2cccc(F)c2C(=O)O)c2cc[nH]c2n1	> 25 µM	> 25 µM	> 25 µM	> 25 µM	> 25 µM	> 25 µM	> 25 µM	> 25 µM	> 25 µM	> 25 µM	> 25 µM	> 25 µM	> 25 µM	> 25 µM	> 25 µM	> 25 µM	> 25 µM	> 25 µM	> 25 µM	> 25 µM
Cc1ccn2c(CCc3nnc4cc(C)ccn34)nnc2c1	–	> 100 µM	–	> 100 µM	–	> 100 µM	–	> 100 µM	–	> 100 µM	–	> 100 µM	–	> 100 µM	–	> 100 µM	–	> 100 µM	–	> 100 µM
c1cncc(C2Nc3cccc4cccc(c34)N2)c1	20.3 µM	65.7 µM	33.9 µM	> 100 µM	11.7 µM	27.4 µM	33.8 µM	> 100 µM	18.5 µM	46.7 µM	42.5 µM	> 100 µM	> 100 µM	> 100 µM	21.9 µM	54 µM	16.5 µM	31.6 µM	46 µM	> 100 µM
CN1CCN(c2nc(NCCCNc3ccnc4cc(Cl)ccc34)c3ccccc3n2)CC1	2.76 µM	8.94 µM	1.8 µM	7.69 µM	2.09 µM	5.93 µM	22 µM	59.1 µM	6.14 µM	20.7 µM	2.81 µM	11.6 µM	6.46 µM	22.5 µM	3.39 µM	10.3 µM	3.3 µM	12.1 µM	1.89 µM	3.77 µM
CC(=O)C1=C(C)N(C)C2(O)C=CC(=O)C3=C(O)c4ccccc4C(=O)C312 (stereo unspecified)	4.96 µM	21.6 µM	3.02 µM	31.5 µM	27 µM	> 100 µM	5.49 µM	> 100 µM	3.42 µM	15.9 µM	5.16 µM	18.4 µM	6.9 µM	32.4 µM	14 µM	31.4 µM	2.77 µM	7.09 µM	2.81 µM	7.87 µM
C/C(=N\NC(=S)N1CCCCCCCCCCCC1)c1ccccn1	–	1.22 µM	–	–	–	1.77 µM	–	9.7 µM	–	1.1 µM	–	1.36 µM	–	–	–	0.28 µM	–	1.66 µM	–	2.15 µM
N#Cc1c(N)nc(N)nc1N[C@H](c1nc2c(F)ccc(Cl)c2c(=O)n1-c1cccnc1)C1CC1	11.8 µM	36.3 µM	19 µM	46.4 µM	2.34 µM	21.1 µM	28.5 µM	> 100 µM	2.3 µM	29.3 µM	3.62 µM	> 100 µM	2.41 µM	11.4 µM	14.7 µM	69.2 µM	11.6 µM	27.3 µM	13.6 µM	41.8 µM
Nc1nc(N)c2c(n1)NC(c1ccccc1)C1CCc3ccccc3C1=N2 (stereo unspecified)	6.02 µM	20.3 µM	3.21 µM	87.1 µM	2.5 µM	13.7 µM	3.13 µM	13.6 µM	2.82 µM	47.7 µM	7.87 µM	21.3 µM	10.3 µM	22.7 µM	4.65 µM	17.4 µM	2.97 µM	12.7 µM	4.88 µM	18 µM
Cc1[nH]c(-c2nc3ccccc3[nH]2)c(C)c1C(=O)NC(C)C1CCCCC1 (stereo unspecified)	10.4 µM	29.4 µM	4.35 µM	17.7 µM	11.9 µM	25.6 µM	10.2 µM	28 µM	12 µM	28.4 µM	12.7 µM	38.3 µM	15.3 µM	34.4 µM	5.58 µM	25.1 µM	10.1 µM	24.2 µM	3.28 µM	17.8 µM
C/C(=N\NC(=S)N1CC2CCC(CC2)C1)c1cccc(C)n1	–	17.8 µM	0.16 µM	17.1 µM	–	4.94 µM	< 0.0001 µM	–	–	15.6 µM	0.397 µM	14.2 µM	–	7.47 µM	0.408 µM	11.8 µM	–	2.78 µM	0.477 µM	5.55 µM
Cc1cc2nc3cc(C)c(N)cc3[n+](-c3ccccc3)c2cc1N	20.5 µM	> 100 µM	4.25 µM	> 100 µM	> 100 µM	> 100 µM	> 100 µM	> 100 µM	3.63 µM	> 100 µM	3.7 µM	> 100 µM	24.8 µM	> 100 µM	0.945 µM	> 100 µM	3.64 µM	41.4 µM	21.2 µM	> 100 µM
NC(N)=Nc1nc2ccc([N+](=O)[O-])cc2[nH]1	–	> 100 µM	–	> 100 µM	–	> 100 µM	–	> 100 µM	–	> 100 µM	–	> 100 µM	–	> 100 µM	–	> 100 µM	–	> 100 µM	–	> 100 µM
COC1C(OC(=O)/C=C/C=C/C=C/C=C\C(=O)O)CCC2(CO2)C1C1(C)OC1CC=C(C)C (stereo unspecified)	> 200 µM	> 200 µM	> 200 µM	> 200 µM	> 200 µM	> 200 µM	> 200 µM	> 200 µM	> 200 µM	> 200 µM	> 200 µM	> 200 µM	> 200 µM	> 200 µM	> 200 µM	> 200 µM	> 200 µM	> 200 µM	> 200 µM	> 200 µM
COC(=O)/C=C1/SC(N2N=C(c3cccs3)CC2c2ccc(F)cc2)=NC1=O (stereo unspecified)	2.96 µM	8.16 µM	2.08 µM	5.36 µM	1.49 µM	2.9 µM	2.84 µM	8.61 µM	1.92 µM	4.3 µM	1.87 µM	4.29 µM	9.78 µM	53.9 µM	1.89 µM	3.69 µM	2.05 µM	3.82 µM	2.25 µM	5.17 µM
O=C1Nc2ccccc2/C1=C\c1nc(C2CCN(S(=O)(=O)c3ccc(F)cc3)CC2)n2ccccc12	2.9 µM	60.8 µM	> 100 µM	> 100 µM	–	–	3.43 µM	> 100 µM	4.98 µM	> 100 µM	2.06 µM	6.37 µM	4.96 µM	> 100 µM	2.53 µM	11.4 µM	13.3 µM	> 100 µM	> 100 µM	> 100 µM
CCCNC(=O)c1ccc(Cl)cc1Cl	> 100 µM	> 100 µM	–	–	> 100 µM	> 100 µM	> 100 µM	> 100 µM	> 100 µM	> 100 µM	> 100 µM	> 100 µM	> 100 µM	> 100 µM	> 100 µM	> 100 µM	> 100 µM	> 100 µM	> 100 µM	> 100 µM
C=C(CC(=O)O)C(=O)O (tested in a mixture with another compound)	> 50 µg/mL	> 50 µg/mL	> 50 µg/mL	> 50 µg/mL	> 50 µg/mL	> 50 µg/mL	> 50 µg/mL	> 50 µg/mL	> 50 µg/mL	> 50 µg/mL	> 50 µg/mL	> 50 µg/mL	> 50 µg/mL	> 50 µg/mL	> 50 µg/mL	> 50 µg/mL	> 50 µg/mL	> 50 µg/mL	> 50 µg/mL	> 50 µg/mL
COCCN1CCN(Cc2ccc(-c3n[nH]c4c3C(=O)c3c(NC(=O)NN5CCOCC5)cccc3-4)cc2)CC1	0.0194 µM	0.584 µM	0.0288 µM	0.0833 µM	0.0916 µM	9.36 µM	0.713 µM	> 10 µM	0.023 µM	> 3.86 µM	0.0324 µM	2.94 µM	0.0457 µM	> 9.41 µM	0.0204 µM	–	0.00897 µM	1.14 µM	0.0296 µM	0.38 µM
CC(C)n1nc(-c2ccc3oc(N)nc3c2)c2c(N)ncnc21	0.0165 µM and 0.0211 µM	1.97 µM and 1.7 µM	< 0.01 µM	1.1 µM and 3.68 µM	< 0.01 µM	0.0402 µM and 0.0898 µM	0.0251 µM and 0.0245 µM	0.58 µM and 0.83 µM	< 0.01 µM	3.94 µM and 2.57 µM	0.0198 µM and 0.0212 µM	0.793 µM and 0.435 µM	< 0.01 µM	0.049 µM and 0.0548 µM	0.0229 µM and 0.0255 µM	10.2 µM and 2.44 µM	0.0387 µM and 0.0361 µM	15 µM	< 0.01 µM	0.522 µM and 0.678 µM
COc1cc(-c2cc(/C=C/C(=O)c3ccc(Cl)c(Cl)c3)[nH]n2)cc(OC)c1OC	8.65 µM	> 100 µM	0.538 µM	6.73 µM	5.73 µM	> 100 µM	10.6 µM	> 100 µM	5.96 µM	> 100 µM	1.72 µM	7.66 µM	4.19 µM	18.8 µM	8.7 µM	80.5 µM	2.95 µM	21.5 µM	18.2 µM	> 100 µM
COc1ccc2c(Cl)cc(NC(=O)Nc3c(C)cccc3C)nc2c1	13.3 µM	> 100 µM	> 100 µM	> 100 µM	3 µM	12.7 µM	> 100 µM	> 100 µM	24.5 µM	> 100 µM	3.91 µM	15.3 µM	4.37 µM	83 µM	13.7 µM	39.2 µM	5.72 µM	> 100 µM	31.8 µM	> 100 µM
COc1c(-c2ccc(O)c(O)c2)oc2c(O)c(O)cc(O)c2c1=O	–	> 100 µM	–	> 100 µM	–	> 100 µM	–	> 100 µM	–	> 100 µM	–	67.4 µM	–	> 100 µM	–	> 100 µM	–	> 100 µM	–	–
